Measurements as given in PMC6617451, “Dual Kit/Aur Inhibitors as Chemosensitizing Agents for the Treatment of Melanoma: Design, Synthesis, Docking Studies and Functional Investigation” (Scientific Reports, 2019).
“And” between values parts separate entries of the source, which are not always exact repeats. Equal entries are not always repeated.

Tests used:
AurA = molecular target: T1, AurA (Homo sapiens, UniProt O14965); assay: Protein kinase inhibitory assay, AurA; format: biochemical; conditions: 10 μM test compound
T1 construct: purchased ThermoFisher Scientific
T1 sequence (O14965 1-403): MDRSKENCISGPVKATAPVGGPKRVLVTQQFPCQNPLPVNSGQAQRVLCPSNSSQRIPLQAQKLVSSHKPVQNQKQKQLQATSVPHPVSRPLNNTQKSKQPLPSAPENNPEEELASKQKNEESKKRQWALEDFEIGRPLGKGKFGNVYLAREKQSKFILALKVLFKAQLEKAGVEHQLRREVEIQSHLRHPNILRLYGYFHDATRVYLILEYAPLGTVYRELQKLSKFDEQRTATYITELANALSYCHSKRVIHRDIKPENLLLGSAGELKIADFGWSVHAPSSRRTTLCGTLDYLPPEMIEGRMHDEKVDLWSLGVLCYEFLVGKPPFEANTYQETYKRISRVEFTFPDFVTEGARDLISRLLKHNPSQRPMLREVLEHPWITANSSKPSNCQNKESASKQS

AurB = molecular target: T2, AurB (Homo sapiens, UniProt Q96GD4); assay: Protein kinase inhibitory assay, AurB; format: biochemical; conditions: 10 μM test compound
T2 construct: purchased ThermoFisher Scientific
T2 sequence (Q96GD4 whole entry): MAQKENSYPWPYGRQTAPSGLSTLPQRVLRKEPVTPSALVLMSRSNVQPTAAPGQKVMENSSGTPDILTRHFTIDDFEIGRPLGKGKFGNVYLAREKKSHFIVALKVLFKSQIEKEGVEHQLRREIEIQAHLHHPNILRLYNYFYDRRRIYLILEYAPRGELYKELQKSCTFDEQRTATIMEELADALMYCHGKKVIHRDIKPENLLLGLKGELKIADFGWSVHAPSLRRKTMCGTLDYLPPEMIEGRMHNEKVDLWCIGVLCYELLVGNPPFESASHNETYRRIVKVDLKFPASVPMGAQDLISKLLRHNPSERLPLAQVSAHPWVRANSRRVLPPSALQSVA
Protocol: (§1) Cell culture media EMEM and DMEM, fetal bovine serum (FBS), L-glutamine, and antibiotics were from Sigma-Aldrich St. Louis, MO, USA). Vemurafenib was purchased from Selleckchem (Munich, Germany). Human recombinant protein kinases and Protein kinase assay kits were from ThermoFisher Scientific (MA, US). Plastics were supplied by Sarstedt (Verona, Italy).
(§2) Inhibitory assays were performed in accordance with a previously reported procedure, standardized for RET and VEGFR2[28],[41]. Test compounds were dissolved in 100% DMSO and diluted to the appropriate concentrations with the reaction buffer, provided by the kit. […] The inhibitory effect of the novel compounds was routinely estimated at 10 μM concentration.

A2058 cell line = assay: Proliferation assay, A2058 melanoma cells (single agents and combination, Chou-Talalay); format: cell-based, human; conditions: for Dose Reduction Index (DRI) 6a + vemurafenib: DRI of each drug in the combination
Protocol: (§3) Compound 6a, merging the best inhibitory profile against the target c-Kit/AurB kinases, was tested on the human A2058 (American Type Culture Collection, Manassas, USA) and WM266-4 (European Collection of Authenticated Cell Cultures, Salisbury, UK) cell lines, chosen as representative of BRAF-mutated melanoma cell lines, to investigate its anti-proliferative efficacy. […]. Vemurafenib, the BRAF V600E inhibitor currently used for the treatment of inoperable, metastatic melanoma, was used as the reference compound. […] The level of possible interaction between the two kinase inhibitors, synergistic, additive or antagonist in nature, was determined by the method of Chou-Talaly[38] and quantitated through the combination index (CI), calculated exploiting the following multiple drug-effect Eq. (1)1 CI=[(D)1/(Dx)1]+[(D)2/(Dx)2] and referred to as synergism, additive effect and antagonism when CI < 1, CI = 1 and CI > 1, respectively.
(§4) The Dose Reduction Index (DRI) was calculated as well, to assess the theoretical magnitude of concentration reduction allowed for the two drugs when given in synergistic combination in vitro to achieve the same effect as that obtained with the concentration of each single agent. DRI was calculated by the following Eq. (2):2 (DRI)=(Dx)/(D)
(§5) Test compounds 6a and vemurafenib were dissolved in a stock solution of 10 mM in 100% dimethylsulfoxide (DMSO) for in vitro studies. DMSO concentration in the control’s media was the same used to make up the highest concentration of test compounds in growth media for the same experiment. In vitro chemosensitivity was tested on melanoma WM266-4 and A2058 cell lines. Cells were grown in EMEM and DMEM media, respectively, plated in sterile 24-well plastic plates and treated for 72 h (using 10^3 cells/well in 1 mL of medium) with added 6a (range of 1–100 μM), or vemurafenib (0.0001–100 μM) alone. The synergistic effect between 6a and vemurafenib was calculated with the method of Chou-Talaly[38] based on the multiple drug-effect equation and quantitated by the combination index (CI) and the dose reduction index (DRI), where CI < 1 and DRI > 1 indicate synergism. At the end of the experiment, cells were harvested with trypsin/EDTA, and viable cells were quantified using the automatic cell counter ADAM MC Digital B (Twin Helix, Milano, Italy). The data are presented as the percentage of vehicle-treated cells. […] All experiments were repeated independently three times with at least nine samples for each concentration.

WM266-4 cell line = assay: Proliferation assay, WM266-4 melanoma cells (single agents and combination, Chou-Talalay); format: cell-based, human; conditions: for Dose Reduction Index (DRI) 6a + vemurafenib: DRI of each drug in the combination
Protocol: as §3, §4, §5

AurC = molecular target: T3, AurC (Homo sapiens, UniProt Q9UQB9); assay: Protein kinase inhibitory assay, AurC; format: biochemical; conditions: 10 μM test compound
T3 construct: purchased ThermoFisher Scientific
T3 sequence (Q9UQB9 1-309): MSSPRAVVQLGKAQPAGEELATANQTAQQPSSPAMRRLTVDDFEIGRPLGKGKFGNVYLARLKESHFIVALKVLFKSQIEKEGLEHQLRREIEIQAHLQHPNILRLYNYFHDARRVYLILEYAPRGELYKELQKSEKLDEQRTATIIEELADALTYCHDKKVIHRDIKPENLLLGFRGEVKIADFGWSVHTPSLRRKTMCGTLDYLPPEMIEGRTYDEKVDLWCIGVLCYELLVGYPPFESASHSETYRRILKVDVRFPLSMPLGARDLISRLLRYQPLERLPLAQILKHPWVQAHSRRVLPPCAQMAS
Protocol: as §1, §2

AurB phosphorylation = molecular target: T4, AurB phosphorylation (Homo sapiens, UniProt Q96GD4); assay: AurB phosphorylation (Phospho-Thr232) ELISA assay in melanoma cells; format: cell-based; conditions: WM266-4 and A2058 cells, 6a 10 μM, 72 h, vs vehicle-treated
T4 construct: endogenous in cells; host or cells: WM266-4 and A2058 human melanoma cells
T4 sequence (Q96GD4 whole entry): as the sequence (Q96GD4 whole entry) above
Protocol: (§6) WM266-4 and A2058 cells (5 × 10^4 cells/well) were treated for 72 h with compound 6a (10 μM) or with vehicle alone. To measure phospho c-Kit and phospho AurB, at the end of the experiment, the cells were harvested and immediately frozen with liquid nitrogen. Cells were then lysed and the total protein was measured. In each sample, an equal amount of proteins was then assayed for human c-Kit and AurB phosporylation by the Human Phospho-CD117/c-kit ELISA Kit (Assaysolution; Woburn, MA, USA) and the AurB (Phospho-Thr232) ELISA Kit (Aviva System Biology; San Diego, CA, USA) and normalized by total protein c-Kit and AurB concentration measured by c-Kit and AurB ELISA kits, respectively. The optical density was determined using the microplate reader Multiskan Spectrum set to 450 nm. All experiments were repeated, independently, six times with at least nine samples for each concentration. The data were expressed as the ratio of phosphorylated c-Kit or AurB/total c-Kit or AurB.

c-Kit phosphorylation = molecular target: T5, c-Kit phosphorylation (Homo sapiens, UniProt P10721); assay: c-Kit phosphorylation ELISA assay in melanoma cells; format: cell-based; conditions: WM266-4 and A2058 cells, 6a 10 μM, 72 h, vs vehicle-treated
T5 construct: endogenous in cells; host or cells: WM266-4 and A2058 human melanoma cells
T5 sequence (P10721 26-976): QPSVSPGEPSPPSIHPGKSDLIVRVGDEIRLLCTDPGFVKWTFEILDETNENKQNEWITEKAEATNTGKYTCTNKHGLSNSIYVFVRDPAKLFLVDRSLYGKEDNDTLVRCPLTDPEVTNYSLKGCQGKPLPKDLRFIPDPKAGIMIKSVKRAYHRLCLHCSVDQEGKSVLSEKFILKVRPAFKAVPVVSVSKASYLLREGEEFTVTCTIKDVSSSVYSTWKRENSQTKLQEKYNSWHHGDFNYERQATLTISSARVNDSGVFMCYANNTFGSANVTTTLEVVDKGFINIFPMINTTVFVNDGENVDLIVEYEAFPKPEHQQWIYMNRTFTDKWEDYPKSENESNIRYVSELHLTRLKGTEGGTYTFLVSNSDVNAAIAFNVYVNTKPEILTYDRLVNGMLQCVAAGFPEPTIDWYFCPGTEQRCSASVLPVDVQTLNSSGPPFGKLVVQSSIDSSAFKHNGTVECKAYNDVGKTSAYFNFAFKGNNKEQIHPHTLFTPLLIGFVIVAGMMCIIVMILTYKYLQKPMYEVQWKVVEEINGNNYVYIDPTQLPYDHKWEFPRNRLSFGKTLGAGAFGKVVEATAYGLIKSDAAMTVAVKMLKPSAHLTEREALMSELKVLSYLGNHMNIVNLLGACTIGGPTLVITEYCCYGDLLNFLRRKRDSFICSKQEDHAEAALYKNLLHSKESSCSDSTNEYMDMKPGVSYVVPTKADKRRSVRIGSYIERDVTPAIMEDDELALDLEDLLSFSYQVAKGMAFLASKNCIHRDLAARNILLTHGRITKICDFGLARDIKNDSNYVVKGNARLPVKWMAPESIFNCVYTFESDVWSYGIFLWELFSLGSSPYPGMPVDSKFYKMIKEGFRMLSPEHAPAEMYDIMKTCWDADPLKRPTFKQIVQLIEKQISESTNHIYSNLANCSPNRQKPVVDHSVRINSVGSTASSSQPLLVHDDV
Protocol: as §6

[1] = A2058, affected cell fraction 75%
[2] = A2058, affected cell fraction 85%
[3] = WM266-4, affected cell fraction 75%
[4] = WM266-4, affected cell fraction 85%
[5] = WM266-4, affected cell fraction 95%

SMILES	percentage of kinase inhibition, AurA (AurA)	percentage of kinase inhibition, AurB (AurB)	Dose Reduction Index (DRI) 6a + vemurafenib (A2058 cell line; [1])	Dose Reduction Index (DRI) 6a + vemurafenib (A2058 cell line; [2])	Dose Reduction Index (DRI) 6a + vemurafenib (WM266-4 cell line; [3])	Dose Reduction Index (DRI) 6a + vemurafenib (WM266-4 cell line; [4])	Dose Reduction Index (DRI) 6a + vemurafenib (WM266-4 cell line; [5])	other results
CCCS(=O)(=O)Nc1ccc(F)c(C(=O)c2c[nH]c3ncc(-c4ccc(Cl)cc4)cc23)c1F [vemurafenib]			21.8	22.2	1.1	1.2	1.4	Dose Reduction Index (DRI) 6a + vemurafenib (A2058 cell line; A2058, affected cell fraction 95%): 22.9
O=C(Nc1ccccc1)Nc1ccc(SCc2n[nH]c(-c3ccccc3)n2)cc1 [Compound 6a, 1-phenyl-3-(4-(((3-phenyl-1H-1,2,4-triazol-5-yl)methyl)thio)phenyl)urea]	most active of the synthesized series		494.1	429.0	374.9	272.1	150 and 147.9	percentage of kinase inhibition, AurC (AurC): most effective of the whole series; IC50 (A2058 cell line; Homo sapiens, A2058, BRAF V600D, 72 h exposure, read-out: IC50 antiproliferative activity): 11.4 µM; quantity of the phosphorylated form of AurB (ratio phosphorylated AurB/total AurB) (AurB phosphorylation): weakly reduced; IC50 (WM266-4 cell line; Homo sapiens, WM 266-4, WM266-4, BRAF V600E, 72 h exposure, read-out: IC50 antiproliferative activity): 9.65 µM; inhibition of c-Kit phosphorylation (ratio phosphorylated c-Kit/total c-Kit) (c-Kit phosphorylation): significant inhibition of c-Kit phosphorylation

The next lines start with results.

percentage of kinase inhibition, AurA (AurA)	percentage of kinase inhibition, AurB (AurB)	SMILES	Dose Reduction Index (DRI) 6a + vemurafenib (A2058 cell line; [1])	Dose Reduction Index (DRI) 6a + vemurafenib (A2058 cell line; [2])	Dose Reduction Index (DRI) 6a + vemurafenib (WM266-4 cell line; [3])	Dose Reduction Index (DRI) 6a + vemurafenib (WM266-4 cell line; [4])	Dose Reduction Index (DRI) 6a + vemurafenib (WM266-4 cell line; [5])	other results
no inhibitory activity	no inhibitory activity	CN(C)c1ccc(NC(=O)Nc2ccc(SCc3n[nH]c(-c4ccc(Cl)cc4)n3)cc2)cc1 [Compound 6e]						
	no inhibitory activity	COc1ccc(NC(=O)Nc2ccc(SCc3n[nH]c(-c4ccc(Br)cc4)n3)cc2)cc1OC [Compound 6h]						
no inhibitory activity		O=C(Nc1ccc(SCc2n[nH]c(-c3ccc(Br)cc3)n2)cc1)Nc1ccc(C(F)(F)F)cc1 [Compound 6g]						
